row,melting point,Structure (SMILES)
1,149 to 150 °C,"O=C(NC1CCOCC1)c1cnccc1C(F)(F)F [Example A, N-(Tetrahydropyran-4-yl)-4-trifluoromethylnicotinamide]"
2,243 to 244 °C,"O=C(NC1CC[S+]([O-])CC1)c1cnccc1C(F)(F)F (stereo not shown) [Example C, N-(Tetrahydrothiopyran-4-yl)-4-trifluoromethylnicotinamide S-oxide]"
3,248 °C (dec.),"O=C(NC1CCS(=O)(=O)CC1)c1cnccc1C(F)(F)F [Example D, N-(Tetrahydrothiopyran-4-yl)-4-trifluoromethylnicotinamide S,S-dioxide]"
4,155 to 156 °C,"CC1(C)OCC(NC(=O)c2cnccc2C(F)(F)F)CO1 [Example E, N-(2,2-Dimethyl-1,3-dioxa-cyclohexyl)-4-trifluoromethylnicotinamide]"

# — patent US20040006047A1, “Heterocyclic amides, a process for their preparation, compositions comprising them and their use” (priority 2001, published 2004)
